This note sets out measurements from publication PMC7794231 (2021).

Test [1] relates to c-Myc (DNA, G4) TGAGGGTGGGTAGGGTGGGTAA
Kind of test: fluorescence lifetime displacement assay (TCSPC). The note with it: 100 mM KCl (K+), 10 mM lithium cacodylate (Li+), pH 7.3, 2 µM DAOTA-M2 displaced, 4 µM c-Myc.

The test system is the same in test [2]. Nature of the test: fluorescence lifetime (TCSPC). The note with it: 100 mM KCl (K+), 10 mM lithium cacodylate (Li+); pH 7.3; 2 µM DAOTA-M2, 4 µM c-Myc, 20 µM CT-DNA present; lifetime 6.1 to 11.7 ns.
Test [3] has as its system ds26 (DNA, duplex) CAATCGGATCGAATTCGATCCGATTG
Nature of the test: fluorescence lifetime (TCSPC). The note with it: 100 mM KCl (K+), 10 mM lithium cacodylate (Li+) (buffer part); Xenopus egg extract 33 µL + 12 µL buffer; 2 µM DAOTA-M2, 44 µM ds26; 21 °C; lifetime 6.1 ns.

As to `N=C(N)c1ccc(-c2cc3ccc(C(=N)N)cc3[nH]2)cc1`, the binding result in test [1] (20 µM CT-DNA present, small lifetime drop) is listed as “no”.

In the case of `NCCOc1cc(C(=O)Nc2cc(OCCN)c3ccccc3n2)nc(C(=O)Nc2cc(OCCN)c3ccccc3n2)c1`, the binding result in test [1] (20 µM CT-DNA present, PDS to 14.4 µM) is “yes”.

For the compound `[Cu+2].[O-]c1cc(OCCN2CCCCC2)ccc1/C=N/c1ccccc1/N=C/c1ccc(OCCN2CCCCC2)cc1[O-]`, in test [1], the binding entry is listed as “yes”.

Turning to `[Ni+2].[O-]c1cc(OCCN2CCCCC2)ccc1/C=N/c1ccccc1/N=C/c1ccc(OCCN2CCCCC2)cc1[O-]`, the binding entry in test [1] is “yes”.

`[O-2].[O-]c1cc(OCCN2CCCCC2)ccc1/C=N/c1ccccc1/N=C/c1ccc(OCCN2CCCCC2)cc1[O-].[V+4]`: the binding entry in test [1] was “yes”.

`[O-]c1cc(OCCN2CCCCC2)ccc1/C=N/c1ccccc1/N=C/c1ccc(OCCN2CCCCC2)cc1[O-].[Zn+2]`: the binding result in test [1] is on record as “weak”.

Turning to `c1cc2oc3cccc4c3[c+]3c2c(c1)n(CCN1CCOCC1)c1cccc(c13)n4CCN1CCOCC1`, the binding entry in test [2] and in test [3] was “yes” each time.
